Source: patent US9790221B2, “Heteroaryl compounds as IRAK inhibitors and uses thereof” (Merck Patent GmbH, priority 2014, dated 2017)

Experiments:
[1] = molecular target: IRAK1 (His-TEV-IRAK1 (194-712)) (Homo sapiens (Human), UniProt P51617); assay: IRAK1 enzymatic assay; type: biochemical
Summary of the method: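 Recombinant His-TEV-IRAK1 (194-712), 15 ng/well, autophosphorylation with 1 μM ATP plus [33P]ATP, 3 h at 30° C in Hepes pH 7.0 buffer with MgCl2, DTT, EGTA, BSA and Triton; compounds from 20 µM to 1 nM. The reaction was stopped with EDTA, and radioactivity was counted in streptavidin FlashPlates.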

IRAK4 = IRAK4 (Homo sapiens (Human), UniProt Q9NWZ3); assay: IRAK4 enzymatic assay; type: biochemical
Summary of the method: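 Recombinant His-TEV-IRAK4 (20 ng/well) phosphorylating biotinylated STK1 peptide (300 nM) with 2 μM ATP plus [^33P]ATP, 3 h at 30° C in pH 7.0 Hepes buffer with Mg2+ and Mn2+. Compounds 20 µM to 1 nM; EDTA stop, radioactivity captured on streptavidin FlashPlates.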

[2] = test system: TLR7 induced IL-6 secretion in human mononuclear cells (PBMC's); assay: TLR7 induced IL-6 in human PBMC's; type: cell-based; settings: Homo sapiens, PBMC, read-out: TLR7 induced IL-6 secretion in hPBMC's (IC50)
Procedure: TLR7 Induced IL-6 in Human PBMC's
Human PBMC assay was used as one of the functional assay a to monitor the activity of IRAK1 and IRAK4 small molecule inhibitors on TLR7 induced IL-6 secretion in human mononuclear cells (PBMC's). Human PBMCs were prepared from buffy coats (whole blood enriched with leukocytes and platelets) obtained from healthy volunteers used either fresh or frozen are plated in assay media (RPMI+2% P/S/L-glu+10% HI-FBS) and pre-treated with compounds in DMSO/media (range of concentrations from 25 uM to 0.4 nM) or controls (0.25% DMSO) for 30 minutes at 37° C. in assay media. Following pre-treatment with IRAK1 and IRAK4 inhibitors, PBMC's were stimulated with TLR7 specific ligand (2 uM) overnight (16-18 hrs) at 37° C. After incubation supernatant was transferred to 384 well PE AlphaPlate-384 (6005350) and IL-6 is quantified using Perkin Elmer IL-6 Alpha LISA kit (AL223C). Plates were read on an Envision® plate reader with Alpha Technology®.

IRAK4, sequence (Q9NWZ3 whole entry): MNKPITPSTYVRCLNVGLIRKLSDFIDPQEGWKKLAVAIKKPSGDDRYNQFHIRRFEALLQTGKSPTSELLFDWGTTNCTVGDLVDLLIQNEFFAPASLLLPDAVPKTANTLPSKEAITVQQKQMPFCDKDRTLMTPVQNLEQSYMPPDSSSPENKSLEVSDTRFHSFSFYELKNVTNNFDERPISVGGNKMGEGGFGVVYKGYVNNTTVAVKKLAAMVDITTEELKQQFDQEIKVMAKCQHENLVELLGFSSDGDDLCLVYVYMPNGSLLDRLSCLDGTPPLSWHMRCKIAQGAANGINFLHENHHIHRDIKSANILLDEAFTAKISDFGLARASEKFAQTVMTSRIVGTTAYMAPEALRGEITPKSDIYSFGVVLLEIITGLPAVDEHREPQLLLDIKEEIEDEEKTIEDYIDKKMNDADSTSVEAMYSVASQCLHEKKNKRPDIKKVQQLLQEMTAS
IRAK1 (His-TEV-IRAK1 (194-712)), sequence (P51617 194-712): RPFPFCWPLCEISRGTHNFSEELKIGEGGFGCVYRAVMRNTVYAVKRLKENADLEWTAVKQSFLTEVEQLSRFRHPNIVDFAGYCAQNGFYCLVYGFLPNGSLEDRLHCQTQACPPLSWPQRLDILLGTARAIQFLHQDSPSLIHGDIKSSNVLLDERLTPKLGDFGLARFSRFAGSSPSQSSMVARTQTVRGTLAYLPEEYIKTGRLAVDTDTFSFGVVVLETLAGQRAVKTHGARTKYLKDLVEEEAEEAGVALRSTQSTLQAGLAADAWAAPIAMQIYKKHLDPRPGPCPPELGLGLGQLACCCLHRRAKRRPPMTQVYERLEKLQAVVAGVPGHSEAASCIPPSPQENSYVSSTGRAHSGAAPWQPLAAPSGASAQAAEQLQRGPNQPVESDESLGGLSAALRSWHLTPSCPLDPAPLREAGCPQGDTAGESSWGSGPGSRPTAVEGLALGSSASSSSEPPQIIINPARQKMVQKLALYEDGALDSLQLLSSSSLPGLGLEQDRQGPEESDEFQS

`CC(C)Nc1cc(-c2cccc(-c3cnn(C)c3)c2)ncc1-c1nnc(C(=O)N2CC[C@@H](O)C2)s1` [Example 21, ((R)-3-Hydroxy-pyrrolidin-1-yl)-(5-{4-isopropylamino-6-[3-(1-methyl-1H-pyrazol-4-yl)-phenyl]-pyridin-3-yl}-[1,3,4]thiadiazol-2-yl)-methanone] was tested, and the IC50 [1] was 1000 to 5000 nM, the IC50 (IRAK4) was < 100 nM and the IC50 [2] was 1000 to 5000 nM.
`CC(C)Nc1cc(-c2cccc(-c3cnn(C)c3)n2)ncc1-c1nnc(C(=O)N2CC[C@@H](O)C2)s1` [Example 22, ((R)-3-Hydroxy-pyrrolidin-1-yl)-{5-[4-isopropylamino-6′-(1-methyl-1H-pyrazol-4-yl)-[2,2′]bipyridinyl-5-yl]-[1,3,4]thiadiazol-2-yl}-methanone] was tested, and the IC50 [1] was 100 to 1000 nM, the IC50 (IRAK4) was < 100 nM and the IC50 [2] was 100 to 1000 nM.
With `Cn1cc(-c2cccc(-c3ncc(-c4cnn(C)c4)c(NC4CCCC4)n3)c2)cn1` [Example 32] the IC50 [1] was 100 to 1000 nM, the IC50 (IRAK4) was < 100 nM and the IC50 [2] was 1000 to 5000 nM.
`Cn1cc(-c2cccc(-c3ncc(-c4cnn(C)c4)c(NCCCO)n3)c2)cn1` [Example 35] gave an IC50 [1] of 100 to 1000 nM, an IC50 (IRAK4) of 100 to 1000 nM and an IC50 [2] of 1000 to 5000 nM.
Compound `Cn1cc(-c2cccc(-c3ncc(-c4cnn(C)c4)c(NCCN4CCOCC4)n3)c2)cn1` [Example 36] has an IC50 [1] of 1000 to 5000 nM, an IC50 (IRAK4) of 100 to 1000 nM and an IC50 [2] of 100 to 1000 nM.
`Cn1cc(-c2cccc(-c3ncc(-c4cnn(C)c4)c(NCc4ccncc4)n3)c2)cn1` [Example 37] showed an IC50 [1] of 1000 to 5000 nM, an IC50 (IRAK4) of 100 to 1000 nM and an IC50 [2] of 1000 to 5000 nM.
`Cn1cc(-c2cccc(-c3ncc(-c4cnn(C)c4)c(NCCN4CCOC4=O)n3)c2)cn1` [Example 38] was tested, and the IC50 [1] was 1000 to 5000 nM, the IC50 (IRAK4) was 100 to 1000 nM and the IC50 [2] was > 5000 nM.
Work on `Cn1cc(-c2cccc(-c3ncc(-c4cnn(C)c4)c(NC4CCOC4)n3)c2)cn1` (stereo not drawn) [Example 41] yielded an IC50 [1] of 100 to 1000 nM, an IC50 (IRAK4) of 100 to 1000 nM and an IC50 [2] of 1000 to 5000 nM.
Work on `Cn1cc(-c2cccc(-c3ncc(-c4cnn(C)c4)c(NCC4CC(F)(F)C4)n3)c2)cn1` [Example 42] yielded an IC50 [1] of 100 to 1000 nM, an IC50 (IRAK4) of 100 to 1000 nM and an IC50 [2] of 100 to 1000 nM.
`Cn1cc(-c2cccc(-c3ncc(-c4cnn(C)c4)c(NCC4(C)CCC4)n3)c2)cn1` [Example 43] showed an IC50 [1] of 100 to 1000 nM, an IC50 (IRAK4) of 100 to 1000 nM and an IC50 [2] of 1000 to 5000 nM.
`Cn1cc(-c2cccc(-c3ncc(-c4cnn(C)c4)c(N[C@H]4CC[C@@H](N)CC4)n3)c2)cn1` [Example 44] was tested, and the IC50 [1] was 100 to 1000 nM, the IC50 (IRAK4) was < 100 nM and the IC50 [2] was 100 to 1000 nM.
`CN(CC1(F)COC1)c1nc(-c2cccc(-c3cnn(C)c3)c2)ncc1-c1cnn(C)c1` [Example 45] showed an IC50 [1] of 1000 to 5000 nM, an IC50 (IRAK4) of 100 to 1000 nM and an IC50 [2] of 1000 to 5000 nM.
With `Cn1cc(-c2cccc(-c3ncc(-c4cnn(C)c4)c(N[C@H]4C[C@@H](O)C4)n3)c2)cn1` [Example 46] the IC50 [1] was 100 to 1000 nM, the IC50 (IRAK4) was 100 to 1000 nM and the IC50 [2] was > 5000 nM.
With `Cn1cc(-c2cccc(-c3ncc(-c4cnn(C)c4)c(N[C@H]4C[C@H](O)C4)n3)c2)cn1` [Example 47] the IC50 [1] was 1000 to 5000 nM, the IC50 (IRAK4) was 100 to 1000 nM and the IC50 [2] was > 5000 nM.
For `Cn1cc(-c2cccc(-c3ncc(-c4cnn(C)c4)c(NC4CC(F)(F)C4)n3)c2)cn1` [Example 48], the IC50 [1] was 100 to 1000 nM, the IC50 (IRAK4) was 100 to 1000 nM and the IC50 [2] was > 5000 nM.
For `Cn1cc(-c2cccc(-c3ncc(-c4cnn(C)c4)c(N[C@H]4C[C@@H](S(C)(=O)=O)C4)n3)c2)cn1` [Example 49], the IC50 [1] was 100 to 1000 nM, the IC50 (IRAK4) was 100 to 1000 nM and the IC50 [2] was > 5000 nM.
`Cn1cc(-c2cccc(-c3ncc(-c4cnn(C)c4)c(NC4CC(F)C4)n3)c2)cn1` (stereo not drawn) [Example 50] was tested, and the IC50 [1] was 100 to 1000 nM, the IC50 (IRAK4) was 100 to 1000 nM and the IC50 [2] was 1000 to 5000 nM.
`Cn1cc(-c2cccc(-c3ncc(-c4cnn(C)c4)c(NCC4(O)COC4)n3)c2)cn1` [Example 52] was tested, and the IC50 [1] was 100 to 1000 nM, the IC50 (IRAK4) was < 100 nM and the IC50 [2] was 1000 to 5000 nM.
With `Cn1cc(-c2cccc(-c3ncc(-c4cnn(C)c4)c(NCC4(CO)CCC4)n3)c2)cn1` [Example 53] the IC50 [1] was 100 to 1000 nM, the IC50 (IRAK4) was < 100 nM and the IC50 [2] was 1000 to 5000 nM.
`Cn1cc(-c2cccc(-c3ncc(-c4cnn(C)c4)c(NC[C@H](O)CO)n3)c2)cn1` [Example 54] gave an IC50 [1] of 100 to 1000 nM, an IC50 (IRAK4) of 100 to 1000 nM and an IC50 [2] of 1000 to 5000 nM.
For `Cn1cc(-c2cccc(-c3ncc(-c4cnn(C)c4)c(NCCN4CCS(=O)(=O)CC4)n3)c2)cn1` [Example 55], the IC50 [1] was 100 to 1000 nM, the IC50 (IRAK4) was < 100 nM and the IC50 [2] was 1000 to 5000 nM.
